Data taken from patent US20200022998A1, “MEDICAL USE OF NOTCH4 OR INHIBITORS THEREOF” (BEIJING INSTITUTE OF GENOMICS, CHINESE ACADEMY OF SCIENCES, priority 2016, published 2020).
“Also recorded” adds a separate entry of the source.

Assays:
Assay type in all cases: cell-based, human
normal iPSC BC1 = assay: in vitro megakaryocyte lineage differentiation of iPSC BC1 (spin-EB), flow cytometry at Day 14; conditions: for decrease of proportion of HSPCs (CD34+CD45+) vs DMSO control / proportion of MKPs (CD34+CD41+) produced, increased fold vs DMSO control (set as 1) / proportion of mature megakaryocytes MKs (CD41+CD42+) produced, increased fold vs DMSO control (set as 1): FIG. 7A; for production of megakaryocyte progenitor cells and/or mature megakaryocytes in vitro: screen in the in vitro differentiation system of stem cells
Procedure: BC1 cell line was cultured in E8 medium, under the culture condition of 37° C., 5% CO2, and was passaged at (1:5)-(1:10) every 3-4 days depending on the concentration of cells. The cells were incubated in 0.5 mM EDTA, at room temperature for 2 min, and then were re-suspended and split up and down with E8 medium, and transferred to a culture dish that had been coated with Vitronectin one hour before.
During differentiation, spin-embryoid body (spin-EB) method was used (Ng E S, Davis R, Stanley E G, Elefanty A G, A protocol describing the use of a recombinant protein-based, animal product-free medium (APEL) for human embryonic stem cell differentiation as spin embryoid bodies, Nat Protoc. 2008; 3(5): 768-76.). At Day 0 (D0) after differentiation, iPSCs reached a confluence of above 85% (confluence refers to the percentage of the surface of a culture dish that is covered by adherent cells). After digestion with Accutase at 37° C. for 3 min, the cells were neutralized and split in SFM medium (50% IMDM, 50% Ham's F12, and the added reagents and factors including: human albumin, monothioglycerol, Glutamax, Chemically Defined Lipid Concentrate, L-Ascorbic acid 2-phosphate sesquimagnesium salt hydrate, ITS-X), counted, and centrifuged. After the cells were re-suspended in SFM, cytokines, i.e. 10 μM ROCK inhibitor (Rho-associated protein kinase inhibitor), 10 ng/ml bFGF, and 10 ng/ml BMP4, were added. Cells were seeded to a round-bottom 96-well plate, at 3000 or 5000 cells/50 μl for each well (3000 or 5000 cells were seeded to each well, in a volume of 50 μl for each well). At Day 2, 50 μl SFM medium+10 ng/ml bFGF+10 ng/ml BMP4+100 ng/ml SCF+20 ng/ml VEGF was added to each well. At Day 5, Day 8, and Day 11, 50 μl SFM medium+10 ng/ml bFGF+10 ng/ml BMP4+50 ng/ml SCF+10 ng/ml VEGF was added to each well, wherein 100 μl old medium was pipetted off at Day 8, and 10 ng/ml thrombopoietin (TPO) was added to each well at Day 11.
At Day 14 (D14), single cells (suspending cells) surrounding embryoid bodies (EBs) were collected. The cells were used in the following flow cytometry.
The cell surface markers (CD34, CD45, CD41, CD42) of the collected cells were detected by flow cytometer. The assay was as followed.
The detection was carried out in four tubes: the first tube was a negative tube that was not labeled with any flow antibody; the second tube was labelled with two antibodies CD34-APC and CD45-PE; the third tube was labeled with CD34-APC and CD41-PE; and the fourth tube was labeled with CD41-PE and CD42-APC, wherein CD34^+CD45^+represented the population of hematopoietic stem/progenitor cells (HSPCs), CD34^+CD41^+ represented the population of megakaryocyte progenitor cells (MKPs), and CD41^+CD42^+ represented the population of mature megakaryocytes (MKs).
(1) The BC1 cell line used was the same as the one used in Example 1, and was divided into three groups, wherein two 96-well plates were used for each group, and the cells were seeded at 5000 cells/50 μl to each well. In vitro differentiation was carried out by reference to the steps in Example 1, wherein the step of adding a drug was carried out in accordance with the following steps in I-III groups:
I. At Day 0 after differentiation, 10 μM RO4929097 was added, and DMSO was added to the control well.
III. At Day 2 after differentiation, 10 μM RO4929097, 10 μM L-685458, and 10 μM DAPT were added, respectively; in addition, at Day 5 after differentiation, 10 μM RO4929097, 10 μM L-685458, and 10 μM DAPT were added, respectively.
(2) The cells were collected for flow cytometry analysis, and as to the steps, please refer to the Example 1 above. […]
I. At Day 0 after differentiation, 10 μM RO4929097, and 10 μM DAPT were added, respectively.
II. At Day 2 after differentiation, 10 μM RO4929097, and 10 μM DAPT were added, respectively.
III. At Day 5 after differentiation, 10 μM RO4929097, and 10 μM DAPT were added, respectively.
IV. […]

[1] = tested on: umbilical cord blood-derived CD34+ cells; assay: polyploid detection, umbilical cord blood-derived CD34+ cells; conditions: 10 μM; DMSO about 16%; FIG. 18
Procedure: (§1) iPSC-derived CD34^+ cells (prepared by the method as described in Example 3-2) and umbilical cord blood-derived CD34^+ cells were seeded at 1*10^6 cells per well to 4 ml StemSpan™ SFEM 11+50 ng/ml SCF+50 ng/ml TPO+50 ng/ml IL-6+20 ng/ml IL-3, in a 12-well plate, with 1 ml medium for each well, and 3 wells in total for each cell line, to which 10 μM RO4929097, 10 μM DAPT, and the same volume of DMSO as control, were added, respectively, and the time was recorded as Day 0. The liquid was changed every 3 days, and the culture condition was 37° C., 5% CO2. After iPSC-derived CD34^+ cells were incubated for 6 days, and umbilical cord blood-derived CD34^+ cells were incubated for 9 days, the following experiment was carried out.
Cells were labeled with CD61-FITC flow cytometric antibody at 4° C. for 30 min. The cells were washed with PBS once, and fixed with 70% ethanol at 4° C. overnight. At the second day, the cells were washed with PBS once. After centriguation, 1 ml PBE (PBS containing 2% serum) +100 μg/ml RNase A +50 μg/ml Propidium Iodide, was added, and incubation was carried out in dark at room temperature for 30 min. The cells were washed with PBS once, and the number of cells (≥8N) in CD61^+ cell population was determined by flow cytometry.

[2] = tested on: umbilical cord blood-derived CD34+ cells; assay: proplatelet formation, umbilical cord blood-derived CD34+ cells; conditions: 10 μM; DMSO about 44%; FIG. 20D
Procedure: as §1
Proplatelet formation of MKs referred to mature megakaryocytes, which extended long and branched filaments and cytoplasmic protrusions.

[3] = 10 μM at Day 5 after in vitro differentiation, found by comparison

SMILES: C[C@H](NC(=O)Cc1cc(F)cc(F)c1)C(=O)N[C@H](C(=O)OC(C)(C)C)c1ccccc1 [DAPT]
- decrease of proportion of HSPCs (CD34+CD45+) vs DMSO control (normal iPSC BC1; 10 μM added at Day 2): 35%
- proportion of MKPs (CD34+CD41+) produced, increased fold vs DMSO control (set as 1) (normal iPSC BC1; 10 μM added at Day 2): about 1.5 folds
- proportion of mature megakaryocytes MKs (CD41+CD42+) produced, increased fold vs DMSO control (set as 1) (normal iPSC BC1; 10 μM added at Day 2): about 2.4 folds
- number of MKPs (CD34+CD41+) produced, increase vs DMSO control (normal iPSC BC1; 10 μM added at Day 2, FIG. 9): 2.5 folds
- number of mature megakaryocytes MKs (CD41+CD42+) produced, increase vs DMSO control (normal iPSC BC1; 10 μM added at Day 2, FIG. 9): 4.3 folds
- proportion of HSPCs produced, increased fold vs DMSO control (set as 1) (normal iPSC BC1; 10 μM added at Day 5, FIG. 7B): about 1.5 folds
- proportion of MKPs produced, increased fold vs DMSO control (set as 1) (normal iPSC BC1; 10 μM added at Day 5, FIG. 7B): about 1.5 folds
- proportion of mature megakaryocytes MKs produced, increased fold vs DMSO control (set as 1) (normal iPSC BC1; 10 μM added at Day 5, FIG. 7B): about 4.1 folds
- total number of hematopoietic cells, increase vs control group (normal iPSC BC1; 10 μM added at Day 5, FIG. 7B): 2.8 folds
- number of HSPCs (CD34+CD45+), increase vs DMSO control (normal iPSC BC1; 10 μM added at Day 5, FIG. 10): 2.8 folds
- number of MKPs (CD34+CD41+) produced, increase vs DMSO control (normal iPSC BC1; 10 μM added at Day 5, FIG. 10): about 6.5 folds
- number of mature megakaryocytes MKs (CD41+CD42+) produced, increase vs DMSO control (normal iPSC BC1; 10 μM added at Day 5, FIG. 10): about 6.7 folds
- number of MKPs (CD34+CD41+) produced, increase vs DMSO control (normal iPSC BC1; 10 μM added at Day 8, FIG. 12): 1.5 folds
- number of mature megakaryocytes MKs (CD41+CD42+) produced, increase vs DMSO control (normal iPSC BC1; 10 μM added at Day 8, FIG. 12): 1.5 folds
- number of mature megakaryocytes MKs (CD41+CD42+) produced, increase vs DMSO control (normal iPSC BC1; 10 μM added at Day 11, FIG. 13): 1.3 folds
- promotion of the production of mature megakaryocytes (normal iPSC BC1; [3]): ~12 folds
- promotion of the production of megakaryocyte progenitor cells (normal iPSC BC1; [3]): 4 folds
- production of megakaryocyte progenitor cells and/or mature megakaryocytes in vitro (normal iPSC BC1): significantly promote
- proportion of polyploid megakaryocytes (≥8N) in CD61+ megakaryocytes [1]: ~12%
- proportion of proplatelet-bearing MKs in 100 differentiated cells [2]: ~42%

SMILES: CC(C)(C(=O)NCC(F)(F)C(F)(F)F)C(=O)N[C@@H]1C(=O)Nc2ccccc2-c2ccccc21 [RO4929097]
- proportion of HSPCs (CD34+CD45+) (normal iPSC BC1; 10 μM added at Day 0, FIG. 5): ~0%
- proportion of MKPs (CD34+CD41+) (normal iPSC BC1; 10 μM added at Day 0, FIG. 5): ~0%
- proportion of MKs (CD41+CD42+) (normal iPSC BC1; 10 μM added at Day 0, FIG. 5): ~0%
- formation of hematopoietic embryoid body (EB) (normal iPSC BC1; 10 μM added at Day 0 after differentiation): no hematopoietic embryoid body EB was formed; also recorded: no hematopoietic embryoid body (EB) could be formed
- increase of proportion of mature megakaryocytes MKs (CD41+CD42+) produced vs DMSO control (normal iPSC BC1; 10 μM added at Day 2, FIG. 6): 64%
- increase of proportion of megakaryocyte progenitor cells MKPs (CD34+CD41+) produced vs DMSO control (normal iPSC BC1; 10 μM added at Day 2, FIG. 6): 67%
- decrease of proportion of HSPCs (CD34+CD45+) vs DMSO control (normal iPSC BC1; 10 μM added at Day 2): 40%
- proportion of MKPs (CD34+CD41+) produced, increased fold vs DMSO control (set as 1) (normal iPSC BC1; 10 μM added at Day 2): about 1.4 folds
- proportion of mature megakaryocytes MKs (CD41+CD42+) produced, increased fold vs DMSO control (set as 1) (normal iPSC BC1; 10 μM added at Day 2): about 2.5 folds
- number of MKPs (CD34+CD41+) produced, increase vs DMSO control (normal iPSC BC1; 10 μM added at Day 2, FIG. 9): 2.5 folds
- number of mature megakaryocytes MKs (CD41+CD42+) produced, increase vs DMSO control (normal iPSC BC1; 10 μM added at Day 2, FIG. 9): 4.3 folds
- decrease of proportion of HSPCs vs DMSO control (normal iPSC BC1; 10 μM added at Day 5, FIG. 7B): 11%
- proportion of mature megakaryocytes MKs produced, increased fold vs DMSO control (set as 1) (normal iPSC BC1; 10 μM added at Day 5, FIG. 7B): about 2.6 folds
- total number of hematopoietic cells, increase vs control group (normal iPSC BC1; 10 μM added at Day 5, FIG. 7B): did not change
- number of HSPCs (CD34+CD45+), increase vs DMSO control (normal iPSC BC1; 10 μM added at Day 5, FIG. 10): 2.8 folds
- number of MKPs (CD34+CD41+) produced, increase vs DMSO control (normal iPSC BC1; 10 μM added at Day 5, FIG. 10): about 6.5 folds
- number of mature megakaryocytes MKs (CD41+CD42+) produced, increase vs DMSO control (normal iPSC BC1; 10 μM added at Day 5, FIG. 10): about 6.7 folds
- number of MKPs (CD34+CD41+) produced, increase vs DMSO control (normal iPSC BC1; 10 μM added at Day 8, FIG. 12): 1.5 folds
- number of mature megakaryocytes MKs (CD41+CD42+) produced, increase vs DMSO control (normal iPSC BC1; 10 μM added at Day 8, FIG. 12): 1.5 folds
- number of mature megakaryocytes MKs (CD41+CD42+) produced, increase vs DMSO control (normal iPSC BC1; 10 μM added at Day 11, FIG. 13): 1.3 folds
- effect on promoting the production of MKPs and MKs (normal iPSC BC1; 15 μM added at Day 2, FIG. 6, not as significant as 10 μM): a certain effect on promoting the production of MKPs and MKs
- production of megakaryocyte progenitor cells and/or mature megakaryocytes in vitro (normal iPSC BC1): significantly promote
- proportion of polyploid megakaryocytes (≥8N) in CD61+ megakaryocytes [1]: about 15%
- proportion of proplatelet-bearing MKs in 100 differentiated cells [2]: about 40%
